The target of one assay is Z α1‐antitrypsin (Homo sapiens, UniProt P01009, E366K). As to the kind of experiment: TR‐FRET immunoassay (2C1 antibody) of Z α1‐antitrypsin polymerisation, 37°C, 72 h. Also noted: purified from the plasma of Z α1‐antitrypsin homozygotes; from tissue; host or cells: human plasma of Z α1-antitrypsin homozygotes. In kind it is biochemical. Conditions: 5 nM Z α1‐antitrypsin, 37°C, 72 h; read-out: pIC50, blocking polymerisation in the TR‐FRET immunoassay (converted). An excerpt: Z α1‐antitrypsin is a conformationally dynamic molecule (Lomas et al, 1992; Knaupp et al, 2010) that represents a non‐classical target for drug discovery. A cell‐free assay approach to hit finding was undertaken so as not to miss compounds that bind α1‐antitrypsin and block polymerisation but lack the molecular properties to cross cell membranes. This comprised the following: (i) an encoded library technology (ELT) screen (Goodnow et al, 2017) of a library with a nominal diversity of 2 × 10^12 unique components to identify binders to Z α1‐antitrypsin and (ii) a high‐throughput screen (HTS) of the GSK compound collection (~ 1.7 million compounds) for small molecules that could block polymerisation of Z α1‐antitrypsin. […] In the HTS assay, polymerisation of purified Z α1‐antitrypsin was induced by incubation at 37°C for 72 h in the presence of test compounds, with end‐point quantification of polymers performed using the polymer‐specific monoclonal antibody, 2C1 (Miranda et al, 2010) in a TR‐FRET‐based immunoassay. […]
An antibody‐based time‐resolved fluorescence resonance energy transfer (TR‐FRET) assay was developed to monitor the polymerisation of 5 nM Z α1‐antitrypsin following incubation with varying concentrations of compounds at 37°C for 72 h. This assay used the 2C1 monoclonal antibody (1.25 nM) that is specific to pathological polymers of α1‐antitrypsin (Miranda et al, 2010), a polyclonal antibody (1/320 dilution) that binds to all forms of α1‐antitrypsin (Abcam product 9373), an anti‐mouse IgG (1.5 nM) labelled with fluorescence donor Eu‐W1024 (Perkin Elmer product AD0076) and an anti‐rabbit IgG (14.3 nM labelled with acceptor [APC]). […] The TR‐FRET signal was read on an Envision plate reader (PerkinElmer), by excitation of Europium at 337 nm and detection of emission at 665 and 620 nm.

Assay [1] deals with Z α1‐antitrypsin polymers. Also noted: method as in Hidvegi et al, 2010. Conditions: Z α1‐antitrypsin transgenic mice, 2 weeks of dosing; ref Hidvegi et al, 2010; cited from earlier work.
The target of assay [2] is bovine α‐chymotrypsin (bovine).

Z α1‐antitrypsin, sequence (P01009 25-418 E366K): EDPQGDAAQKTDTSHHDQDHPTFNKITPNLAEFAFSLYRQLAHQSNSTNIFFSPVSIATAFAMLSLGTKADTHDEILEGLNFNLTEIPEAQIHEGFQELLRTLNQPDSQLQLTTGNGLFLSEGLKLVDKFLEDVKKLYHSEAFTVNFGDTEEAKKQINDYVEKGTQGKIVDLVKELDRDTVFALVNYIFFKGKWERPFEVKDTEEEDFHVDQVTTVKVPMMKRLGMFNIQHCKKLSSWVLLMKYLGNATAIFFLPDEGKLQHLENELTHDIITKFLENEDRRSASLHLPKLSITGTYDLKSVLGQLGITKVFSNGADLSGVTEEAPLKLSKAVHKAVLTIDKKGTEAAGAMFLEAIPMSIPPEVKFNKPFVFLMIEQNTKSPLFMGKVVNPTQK
wild‐type M α1‐antitrypsin, purified from plasma, sequence (P01009 25-418): as the sequence (P01009 25-418 E366K) above, with K342E counted along it

`CCCC(NC(=O)c1ccc2cc[nH]c2c1)C(O)c1ccccc1` (stereo not drawn) [GSK425]: the IC50 at Z α1‐antitrypsin was 316 nM.

With `NC(=O)N1c2ccccc2C=Cc2ccccc21` [carbamazepine], the “effect on liver polymer” value in assay [1] is “profound effects on liver polymer”.

As for “wild‐type M α1‐antitrypsin, purified from plasma (from UniProt P01009 25-418) (natural protein)”, in assay [2], the protease inhibitory activity (stoichiometry of inhibition, residual chymotrypsin activity) after pre‐incubation with 50 µM GSK716 is more than 98%.

These data come from PMC7933930, “Development of a small molecule that corrects misfolding and increases secretion of Z α1‐antitrypsin” (EMBO Molecular Medicine, 2021).
